Measured values from patent USRE48335E1, “Polymyxin derivatives as antimicrobial compounds” (priority 2014, dated 2020).
In brackets after ≈: the same amount, converted by molar mass. Like-named read-outs stand apart in the source and are kept apart here. Positions of bridges follow the written chain, without caps; N, C: chain ends. Non-standard residues stand in square brackets, D forms with d. Residues, ends and D or L forms follow the SMILES beside them. *: point of attachment. Benzoyl(3-CF3) = O=C(c1cccc(C(F)(F)F)c1)*; Benzoyl(4-Ph) = O=C(c1ccc(-c2ccccc2)cc1)*; Benzoyl(4-Et) = CCc1ccc(C(=O)*)cc1; dNle = CCCC[C@@H](N)C(=O)O; Octanoyl = CCCCCCCC(=O)*; Dab = NCC[C@H](N)C(=O)O; Abu = CC[C@H](N)C(=O)O; Dap = NC[C@H](N)C(=O)O

How the values were obtained:
Acinetobacter baumannii = system: Acinetobacter baumannii
How it was run: (§1)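 Lipopeptide TFA salts are serially diluted in cation-adjusted Mueller-Hinton broth and inoculated per the CLSI M100-S18 broth microdilution method. The MIC is then recorded, with polymyxin B sulphate included as a control.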

Enterobacter cloacae = system: Enterobacter cloacae
How it was run: as §1

Klebsiella pneumoniae = system: Klebsiella pneumoniae
How it was run: as §1

Pseudomonas aeruginosa = system: Pseudomonas aeruginosa
How it was run: as §1

P. aeruginosa ATCC 27853 = assay: In vivo efficacy in mouse blood infection model (neutropenic Swiss mice); conditions: compound, free base 4 mg/kg intravenously 2 h after inoculation, blood at 4 h
Protocol: P. aeruginosa ATCC 27853, A. baumannii ATCC 19606 and K. pneumoniae FADDI-KP032 were subcultured on nutrient agar plates. One colony of each bacterial strain was dispersed in 10-mL CAMHB and incubated overnight. On day 2, an aliquot (0.2 mL) of each overnight culture suspension was dispersed in 20-mL CAMHB and incubated for 1.5-2.5 h for production of early log-phase growth bacterial culture. The bacteria in the early log-phase growth suspension were concentrated by centrifugation (3,220 g for 10 min) and re-suspended in sterile 0.9% saline for inoculation into mice. The bacterial cell concentration (colony forming unit [CFU]/mL) in saline was estimated by determining the optical density (OD) of the suspension at 600 nm, and confirmed by plating the suspension on nutrient agar plates. Swiss mice (22 to 28 g) were rendered neutropenic by injecting two doses of cyclophosphamide intraperitoneally, −4 day (150 mg/kg) and −1 day (100 mg/kg) prior to inoculation. Bloodstream infection was established by injecting intravenously 50 μL of early log-phase bacterial suspension (10^8-10^9 CFU/mL). The exact injection volume for each bacterial suspension was calculated based upon the OD value of the bacterial suspension and the desired inoculum for each isolate.
Solutions for administration of colistin, polymyxin B or the compounds were prepared at a concentration of 1 mg (free base) per mL in sterile 0.9% saline. At 2 h after inoculation, a mouse in the treatment groups was injected intravenously with one of the above solutions at 4 μL/g body weight (BW) (i.e. free base 4 mg/kg BW), while the same volume of saline was injected into the control mice. At 0 h or at 4 h after the administration of antibacterial drug or saline (control), animals were euthanised by inhalation of overdose isoflurane. The skin on the chest and fore-paws of each animal was thoroughly cleansed with 70% ethanol and Betadine®. The blood was collected via cardiac puncture using a 1-mL syringe rinsed with heparin (5,000 IU/mL), diluted serially in sterile 0.9% saline and plated on nutrient agar plates using a spiral plater.
The agar plates were incubated at 37° C. overnight. The bacterial colonies on the plate were counted and CFU/mL of the blood was calculated. The log10 CFU/mL of blood in each mouse was calculated. The in vivo activity of the compounds against the bacteria was calculated as the difference of the log10 CFU/mL values between the treated mice and the control mice at 4 h (Δ log=log10 (treated)CFU/mL−log10 (control)CFU/mL).
Any compound showing a decrease in bacterial loading (Δ log) of ≥2 at 4 h is considered to have good in vivo efficacy in this initial screening model.

Structure (SMILES): CCc1ccc(C(=O)N[C@@H](CCN)C(=O)N[C@H](C(=O)N[C@@H](CN)C(=O)N[C@H]2CCNC(=O)[C@H]([C@@H](C)O)NC(=O)[C@H](CCN)NC(=O)[C@H](CCN)NC(=O)[C@H](CC)NC(=O)[C@@H](CC(C)C)NC(=O)[C@H](CCN)NC2=O)[C@@H](C)O)cc1 [Compound 100] ({Benzoyl(4-Et)}-[Dab]T[Dap][Dab][Dab][dL][Abu][Dab][Dab]T; lactam 4-C)
- MIC (Acinetobacter baumannii): 2 µg/mL (≈ 1.79 µM)
- Minimum inhibitory concentration, Ab A ATCC 17978 (Acinetobacter baumannii): 1 µg/mL (≈ 0.893 µM)
- Minimum inhibitory concentration, Ab ATCC 19606 (Acinetobacter baumannii): 2 µg/mL (≈ 1.79 µM)
- Minimum inhibitory concentration, Ab FADDI-AB034 (Acinetobacter baumannii): 1 µg/mL (≈ 0.893 µM)
- Minimum inhibitory concentration, Ec FADDI-EC001 (Enterobacter cloacae): 0.25 µg/mL (≈ 0.223 µM)
- Minimum inhibitory concentration, Ec FADDI-EC003 (Enterobacter cloacae): 0.5 µg/mL (≈ 0.447 µM)
- Minimum inhibitory concentration, Ec FADDI-EC006 (Enterobacter cloacae): 0.5 µg/mL (≈ 0.447 µM)
- MIC (Klebsiella pneumoniae): 0.5 µg/mL (≈ 0.447 µM)
- MIC (Pseudomonas aeruginosa): 0.5 µg/mL (≈ 0.447 µM)
- Minimum inhibitory concentration, Pa ATCC 27853 (Pseudomonas aeruginosa): 0.5 µg/mL (≈ 0.447 µM)
- Minimum inhibitory concentration, Pa FADDI-PA022 (Pseudomonas aeruginosa): 0.5 µg/mL (≈ 0.447 µM)
- Minimum inhibitory concentration, Pa FADDI-PA025 (Pseudomonas aeruginosa): 2 µg/mL (≈ 1.79 µM)
- Δ log (Treated-Control at 4 h) (P. aeruginosa ATCC 27853): −3.83 (−3.83) log10 CFU/mL

Structure (SMILES): CC(C)C[C@H]1NC(=O)[C@H](CCN)NC(=O)[C@@H](NC(=O)[C@H](CCN)NC(=O)[C@@H](NC(=O)[C@H](CCN)NC(=O)c2ccc(-c3ccccc3)cc2)[C@@H](C)O)CCNC(=O)[C@H]([C@@H](C)O)NC(=O)[C@H](CCN)NC(=O)[C@H](CCN)NC(=O)[C@H]([C@@H](C)O)NC1=O [Compound 29] ({Benzoyl(4-Ph)}-[Dab]T[Dab][Dab][Dab][dL]T[Dab][Dab]T; lactam 4-C)
- MIC (Acinetobacter baumannii; A. baumannii ATCC 19606): 8 µg/mL (≈ 6.68 µM)
- Minimum inhibitory concentration, Ab A ATCC 17978 (Acinetobacter baumannii; Acinetobacter baumannii ATCC 17978, broth microdilution in CAMHB): 2 µg/mL (≈ 1.67 µM)
- Minimum inhibitory concentration, Ab ATCC 19606 (Acinetobacter baumannii; Acinetobacter baumannii ATCC 19606, broth microdilution in CAMHB): 8 µg/mL (≈ 6.68 µM)
- Minimum inhibitory concentration, Ab FADDI-AB034 (Acinetobacter baumannii; Acinetobacter baumannii FADDI-AB034, broth microdilution in CAMHB): 4 µg/mL (≈ 3.34 µM)
- Minimum inhibitory concentration, Ec FADDI-EC001 (Enterobacter cloacae; Enterobacter cloacae FADDI-EC001, broth microdilution in CAMHB): 0.5 µg/mL (≈ 0.418 µM)
- Minimum inhibitory concentration, Ec FADDI-EC003 (Enterobacter cloacae; Enterobacter cloacae FADDI-EC003, broth microdilution in CAMHB): 1 µg/mL (≈ 0.835 µM)
- Minimum inhibitory concentration, Ec FADDI-EC006 (Enterobacter cloacae; Enterobacter cloacae FADDI-EC006, broth microdilution in CAMHB): 0.5 µg/mL (≈ 0.418 µM)
- MIC (Klebsiella pneumoniae; K. pneumoniae FADDI-KP032): 1 µg/mL (≈ 0.835 µM)
- MIC (Pseudomonas aeruginosa; P. aeruginosa ATCC 27853): 1 µg/mL (≈ 0.835 µM)
- Minimum inhibitory concentration, Pa ATCC 27853 (Pseudomonas aeruginosa; Pseudomonas aeruginosa ATCC 27853, broth microdilution in CAMHB): 1 µg/mL (≈ 0.835 µM)
- Minimum inhibitory concentration, Pa FADDI-PA022 (Pseudomonas aeruginosa; Pseudomonas aeruginosa FADDI-PA022, broth microdilution in CAMHB): 4 µg/mL (≈ 3.34 µM)
- Minimum inhibitory concentration, Pa FADDI-PA025 (Pseudomonas aeruginosa; Pseudomonas aeruginosa FADDI-PA025, broth microdilution in CAMHB): 32 µg/mL (≈ 26.7 µM)
- Δ log (Treated-Control at 4 h) (P. aeruginosa ATCC 27853): −2.80 log10 CFU/mL

Structure (SMILES): CCCC[C@H]1NC(=O)[C@H](CCN)NC(=O)[C@@H](NC(=O)[C@H](CN)NC(=O)[C@@H](NC(=O)[C@H](CCN)NC(=O)c2cccc(C(F)(F)F)c2)[C@@H](C)O)CCNC(=O)[C@H]([C@@H](C)O)NC(=O)[C@H](CCN)NC(=O)[C@H](CCN)NC(=O)[C@H](C)NC1=O [Compound 125] ({Benzoyl(3-CF3)}-[Dab]T[Dap][Dab][Dab][dNle]A[Dab][Dab]T; lactam 4-C)
- MIC (Acinetobacter baumannii): 1 µg/mL (≈ 0.873 µM)
- Minimum inhibitory concentration, Ab A ATCC 17978 (Acinetobacter baumannii): 1 µg/mL (≈ 0.873 µM)
- Minimum inhibitory concentration, Ab ATCC 19606 (Acinetobacter baumannii): 1 µg/mL (≈ 0.873 µM)
- Minimum inhibitory concentration, Ab FADDI-AB034 (Acinetobacter baumannii): 0.5 µg/mL (≈ 0.437 µM)
- Minimum inhibitory concentration, Ec FADDI-EC001 (Enterobacter cloacae): 0.5 µg/mL (≈ 0.437 µM)
- Minimum inhibitory concentration, Ec FADDI-EC003 (Enterobacter cloacae): 0.5 µg/mL (≈ 0.437 µM)
- Minimum inhibitory concentration, Ec FADDI-EC006 (Enterobacter cloacae): 1 µg/mL (≈ 0.873 µM)
- MIC (Klebsiella pneumoniae): 0.25 µg/mL (≈ 0.218 µM)
- MIC (Pseudomonas aeruginosa): 0.25 µg/mL (≈ 0.218 µM)
- Minimum inhibitory concentration, Pa ATCC 27853 (Pseudomonas aeruginosa): 0.25 µg/mL (≈ 0.218 µM)
- Minimum inhibitory concentration, Pa FADDI-PA022 (Pseudomonas aeruginosa): 0.5 µg/mL (≈ 0.437 µM)
- Minimum inhibitory concentration, Pa FADDI-PA025 (Pseudomonas aeruginosa): 2 µg/mL (≈ 1.75 µM)
- Δ log (Treated-Control at 4 h) (P. aeruginosa ATCC 27853): −3.66 log10 CFU/mL

Structure (SMILES): CCCCCCCC(=O)N[C@@H](CCN)C(=O)N[C@H](C(=O)N[C@@H](CN)C(=O)N[C@H]1CCNC(=O)[C@H]([C@@H](C)O)NC(=O)[C@H](CCN)NC(=O)[C@H](CCN)NC(=O)[C@H](CC)NC(=O)[C@@H](Cc2ccccc2)NC(=O)[C@H](CCN)NC1=O)[C@@H](C)O [Compound 130] (Octanoyl-[Dab]T[Dap][Dab][Dab][dF][Abu][Dab][Dab]T; lactam 4-C)
- MIC (Acinetobacter baumannii): 0.25 µg/mL (≈ 0.218 µM)
- Minimum inhibitory concentration, Ab A ATCC 17978 (Acinetobacter baumannii): 0.25 µg/mL (≈ 0.218 µM)
- Minimum inhibitory concentration, Ab ATCC 19606 (Acinetobacter baumannii): 0.25 µg/mL (≈ 0.218 µM)
- Minimum inhibitory concentration, Ab FADDI-AB034 (Acinetobacter baumannii): 0.25 µg/mL (≈ 0.218 µM)
- Minimum inhibitory concentration, Ec FADDI-EC001 (Enterobacter cloacae): 0.25 µg/mL (≈ 0.218 µM)
- Minimum inhibitory concentration, Ec FADDI-EC003 (Enterobacter cloacae): 0.25 µg/mL (≈ 0.218 µM)
- Minimum inhibitory concentration, Ec FADDI-EC006 (Enterobacter cloacae): 1 µg/mL (≈ 0.872 µM)
- MIC (Klebsiella pneumoniae): 0.5 µg/mL (≈ 0.436 µM)
- MIC (Pseudomonas aeruginosa): 0.5 µg/mL (≈ 0.436 µM)
- Minimum inhibitory concentration, Pa ATCC 27853 (Pseudomonas aeruginosa): 0.5 µg/mL (≈ 0.436 µM)
- Minimum inhibitory concentration, Pa FADDI-PA022 (Pseudomonas aeruginosa): 2 µg/mL (≈ 1.74 µM)
- Minimum inhibitory concentration, Pa FADDI-PA025 (Pseudomonas aeruginosa): 2 µg/mL (≈ 1.74 µM)
- Δ log (Treated-Control at 4 h) (P. aeruginosa ATCC 27853): −3.66 log10 CFU/mL
